Results: patent publication US20130059787A1, “METHODS OF USING HUMAN PROTEIN KINASE C DELTA VIII AS A BIOMARKER” (UNITED STATES DEPARTMENT OF VETERAN AFFAIRS, priority 2010, published 2013)

Key:
[1] = tested on: SC35 (SRp30b); assay: Western blot of NT2 whole cell lysates with specific antibodies; type: cell-based, human; conditions: RA about 10 μM, about 24 h; NT2 cells
Procedure: (§1) FIG. 6 is a series of images illustrating the detection of SR proteins involved in RA-mediated PKXδVIII expression. NT2 cells were treated with RA (about 10 μM) for about 24 h or without RA (control), and Western blot analysis was performed on whole cell lysates using (a) mAb104 antibody that detects all SR proteins and (b) specific antibodies as indicated in the figure. Molecular masses are indicated (kDa).
(§2) Cell lysates (about 40 μg) were separated on 10% SDS-PAGE. […] In apoptotic cells, PARP is cleaved by caspase 3 into an 85 kDa fragment which is detected in addition to the 116 KDa fragment using anti-PARP antibody in western blot analysis. […] (Putt K S, Beilman G J, and H. P J., Direct quantitation of poly(ADP-ribose) polymerase (PARP) activity as a means to distinguish necrotic and apoptotic death in cell and tissue samples. Chembiochem, 2005. 6: p. 53-55)
(§3) (SR) proteins that bind to exonic or intronic splicing enhancers (ESE, ISE) on the pre-mRNA. […] NT2 cells were treated with or without RA (about 24 h), and whole cell lysates were analyzed by Western blot analysis using mAb104 antibody that simultaneously detects the phosphoepitopes on all SR proteins. […]

[2] = tested on: SF2/ASF (SRp30a); assay: as above; type: cell-based, human; conditions: RA about 10 μM, about 24 h; NT2 cells
Procedure: as §1, §2, §3

SMILES: CC1=C(/C=C/C(C)=C/C=C/C(C)=C/C(=O)O)C(C)(C)CCC1 [RA, all-trans-retinoic acid]
- SC35 (SRp30b) expression [1]: increase
- SF2/ASF (SRp30a) expression [2]: remained relatively constant
